Reference: ChEMBL document CHEMBL2203177, “Tuning the activity of a short arg-trp antimicrobial Peptide by lipidation of a C- or N-terminal lysine side-chain” (ACS Med Chem Lett, 2012)
In brackets after ≈: the same amount, converted by molar mass. Peptide text beside a SMILES is read from it. * marks the point of attachment. Myristoyl = CCCCCCCCCCCCCC(=O)*; Hexanoyl = CCCCCC(=O)*; Butyryl = CCCC(=O)*

How the values were obtained:
[1] = Hemolytic activity against human RBC assessed as hemoglobin leakage at 250 ug/ml; type: ADME, cell-based, Erythrocyte; details: human red blood cells, read-out: Activity
[2] = tested on: Staphylococcus aureus; assay: Antibacterial activity against Staphylococcus aureus ATCC 43300 assessed as growth inhibition after 18 hrs; type: functional; details: ATCC 43300, 18 h
[3] = tested on: Pseudomonas aeruginosa; assay: Antibacterial activity against Pseudomonas aeruginosa DSM 50071 assessed as growth inhibition after 18 hrs; type: functional; details: DSM 50071, 18 h
[4] = tested on: Staphylococcus aureus; assay: Antibacterial activity against Staphylococcus aureus DSM 20231 assessed as growth inhibition after 18 hrs; type: functional; details: DSM 20231, 18 h
[5] = tested on: Acinetobacter baumannii; assay: Antibacterial activity against Acinetobacter baumannii DSM 30007 assessed as growth inhibition after 18 hrs; type: functional; details: DSM 30007, 18 h
[6] = tested on: Bacillus subtilis; assay: Antibacterial activity against Bacillus subtilis 168 DSM 402 assessed as growth inhibition after 18 hrs; type: functional; details: subsp. subtilis str. 168 DSM 402, 18 h
[7] = tested on: Escherichia coli; assay: Antibacterial activity against Escherichia coli DSM 30083 assessed as growth inhibition after 18 hrs; type: functional; details: DSM 30083, 18 h
[8] = tested on: Bacillus subtilis; assay: Bactericidal activity against Bacillus subtilis 168 (trpC2)2 assessed as survival rate at twice MIC concentration incubated for 15 mins measured after 18 hrs; type: functional, subsp. subtilis str. 168 (trpC2)2

SMILES	hemolysis at 250 ug/ml [1]	MIC [2]	MIC [3]	MIC [4]	MIC [5]	MIC [6]	MIC [7]	Survival [8]
CC(=O)NCCCC[C@H](NC(=O)[C@H](Cc1c[nH]c2ccccc12)NC(=O)[C@H](CCCNC(=N)N)NC(=O)[C@H](Cc1c[nH]c2ccccc12)NC(=O)[C@H](CCCNC(=N)N)NC(=O)[C@H](Cc1c[nH]c2ccccc12)NC(=O)[C@@H](N)CCCNC(=N)N)C(N)=O (H-RWRWRWK(Ac)-NH2)	< 10%	> 100 µM	> 100 µM	> 100 µM	> 100 µM	10 µM (≈ 12.1 µg/mL)	> 100 µM	
CCCCCC(=O)NCCCC[C@H](N)C(=O)N[C@@H](CCCNC(=N)N)C(=O)N[C@@H](Cc1c[nH]c2ccccc12)C(=O)N[C@@H](CCCNC(=N)N)C(=O)N[C@@H](Cc1c[nH]c2ccccc12)C(=O)N[C@@H](CCCNC(=N)N)C(=O)N[C@@H](Cc1c[nH]c2ccccc12)C(N)=O (H-K(Hexanoyl)RWRWRW-NH2)	< 10%	5 µM (≈ 6.35 µg/mL)	37 µM (≈ 47 µg/mL)	5 µM (≈ 6.35 µg/mL)	9 µM (≈ 11.4 µg/mL)	0.6 µM (≈ 0.762 µg/mL)	9 µM (≈ 11.4 µg/mL)	0.211%
CCCCCCCCCCCCCC(=O)NCCCC[C@H](NC(=O)[C@H](Cc1c[nH]c2ccccc12)NC(=O)[C@H](CCCNC(=N)N)NC(=O)[C@H](Cc1c[nH]c2ccccc12)NC(=O)[C@H](CCCNC(=N)N)NC(=O)[C@H](Cc1c[nH]c2ccccc12)NC(=O)[C@@H](N)CCCNC(=N)N)C(N)=O (H-RWRWRWK(Myristoyl)-NH2)	> 50%	2 µM (≈ 2.77 µg/mL)	70 µM (≈ 96.8 µg/mL)	2 µM (≈ 2.77 µg/mL)	9 µM (≈ 12.4 µg/mL)	4 µM (≈ 5.53 µg/mL)	17 µM (≈ 23.5 µg/mL)	0%
CCCC(=O)NCCCC[C@H](N)C(=O)N[C@@H](CCCNC(=N)N)C(=O)N[C@@H](Cc1c[nH]c2ccccc12)C(=O)N[C@@H](CCCNC(=N)N)C(=O)N[C@@H](Cc1c[nH]c2ccccc12)C(=O)N[C@@H](CCCNC(=N)N)C(=O)N[C@@H](Cc1c[nH]c2ccccc12)C(N)=O (H-K(Butyryl)RWRWRW-NH2)	< 10%	19 µM (≈ 23.6 µg/mL)	> 100 µM	38 µM (≈ 47.2 µg/mL)	> 100 µM	2 µM (≈ 2.49 µg/mL)	38 µM (≈ 47.2 µg/mL)	
N=C(N)NCCC[C@H](NC(=O)[C@H](Cc1c[nH]c2ccccc12)NC(=O)[C@H](CCCNC(=N)N)NC(=O)[C@H](Cc1c[nH]c2ccccc12)NC(=O)[C@@H](N)CCCNC(=N)N)C(=O)N[C@@H](Cc1c[nH]c2ccccc12)C(=O)N[C@@H](CCCCN)C(N)=O (H-RWRWRWK-NH2)	< 10%	18 µM (≈ 21.1 µg/mL)	> 100 µM	37 µM (≈ 43.4 µg/mL)	> 100 µM	5 µM (≈ 5.86 µg/mL)	18 µM (≈ 21.1 µg/mL)	
CCCCCCCCCCCCCC(=O)NCCCC[C@H](N)C(=O)N[C@@H](CCCNC(=N)N)C(=O)N[C@@H](Cc1c[nH]c2ccccc12)C(=O)N[C@@H](CCCNC(=N)N)C(=O)N[C@@H](Cc1c[nH]c2ccccc12)C(=O)N[C@@H](CCCNC(=N)N)C(=O)N[C@@H](Cc1c[nH]c2ccccc12)C(N)=O (H-K(Myristoyl)RWRWRW-NH2)	> 50%	17 µM (≈ 23.5 µg/mL)	> 100 µM	9 µM (≈ 12.4 µg/mL)	35 µM (≈ 48.4 µg/mL)	9 µM (≈ 12.4 µg/mL)	35 µM (≈ 48.4 µg/mL)	0.033%
CCCCCC(=O)NCCCC[C@H](NC(=O)[C@H](Cc1c[nH]c2ccccc12)NC(=O)[C@H](CCCNC(=N)N)NC(=O)[C@H](Cc1c[nH]c2ccccc12)NC(=O)[C@H](CCCNC(=N)N)NC(=O)[C@H](Cc1c[nH]c2ccccc12)NC(=O)[C@@H](N)CCCNC(=N)N)C(N)=O (H-RWRWRWK(Hexanoyl)-NH2)	< 10%	9 µM (≈ 11.4 µg/mL)	74 µM (≈ 94 µg/mL)	18 µM (≈ 22.9 µg/mL)	19 µM (≈ 24.1 µg/mL)	2 µM (≈ 2.54 µg/mL)	19 µM (≈ 24.1 µg/mL)	0.687%
N=C(N)NCCC[C@H](NC(=O)[C@H](Cc1c[nH]c2ccccc12)NC(=O)[C@H](CCCNC(=N)N)NC(=O)[C@H](Cc1c[nH]c2ccccc12)NC(=O)[C@H](CCCNC(=N)N)NC(=O)[C@@H](N)CCCCN)C(=O)N[C@@H](Cc1c[nH]c2ccccc12)C(N)=O (H-KRWRWRW-NH2)	< 10%	9 µM (≈ 10.6 µg/mL)	> 100 µM	37 µM (≈ 43.4 µg/mL)	> 100 µM	2 µM (≈ 2.34 µg/mL)	18 µM (≈ 21.1 µg/mL)	7%
